These are literature values, as cited in patent US7799756B2, “Processes for stereoselective synthesis of trans ISATX247” (Albany Molecular Research, Inc., priority 2004, dated 2010).

For series [1] the following is noted: over natural cyclosporins and presently known cyclosporin derivatives.
The conditions of series [2]: phase IIa, kidney transplantation, mixture of cis and trans isomers.
For series [3] the following is noted: compared to the corresponding cis-isomer.
For series [4] the following is noted: compared to the corresponding cis-isomer. The source holds these as a separate data set.

As to `C=CC=CC[C@@H](C)[C@@H](O)C1C(=O)N[C@H](CC)C(=O)N(C)CC(=O)N(C)[C@@H](CC(C)C)C(=O)N[C@H](C(C)C)C(=O)N(C)[C@H](CC(C)C)C(=O)N[C@H](C)C(=O)N[C@@H](C)C(=O)N(C)[C@H](CC(C)C)C(=O)N(C)[C@H](CC(C)C)C(=O)N(C)[C@H](C(C)C)C(=O)N1C` (stereo partly drawn) [ISATX247, cyclo {(E,Z)-(2S,3R,4R)-3-hydoxy-4-methyl-2-(methylamino)-6,8-nonadienoyl-L-2-aminobutyryl-N-methyl-glycyl-N -methyl-L-leucyl-L-valyl-N-methyl-L-leucyl-L-alanyl-D-alanyl-N-methyl-L-leucyl-N-methyl-L-leucyl-N-methyl-L-valyl}], in series [1], the potency result is listed as “enhanced potency”. Also, the clinical trial outcome in series [2] is given as “positive results”.
Regarding trans ISATX247, in series [3], the activity on immunosuppression result is given as “better activity on immunosuppression”. For the same molecule, the therapeutic index entry in series [4] is listed as “improved therapeutic index”.
